# Test results reported in PubChem BioAssay AID1963834 (Molecular Pharmacology Branch, DTP, NCI, 2024).
# Tested on: 873145-292-R-J1-PDC complex spheroid viability
# Assay: Anticancer human tumor 873145-292-R-J1-PDC patient-derived renal clear cell carcinoma cell line growth inhibition [POLQ]
# Conditions: for IC50: curve of first compound; for viability, T/C: stronger effect = lower value
# Summary of the method: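 PDC + HUVEC + MSC complex spheroids; POLQ inhibitors ± partner drugs; top conc. at/near clinical Cmax, else 10 microM (SN-38 1 microM), half-log dilutions; 37 degrees C, 5% CO2.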
# [1] = second compound 0.0316 µM, first compound 0.0316 µM
# [2] = second compound 0.0316 µM, first compound 0.1 µM
# [3] = second compound 0.0316 µM, first compound 0.316 µM
# [4] = second compound 0.0316 µM, first compound 1 µM
# [5] = second compound 0.0316 µM, first compound 3.16 µM
# [6] = second compound 0.0316 µM, first compound 10 µM
# [7] = second compound 0.1 µM, first compound 0.0316 µM
# [8] = second compound 0.1 µM, first compound 0.1 µM
# [9] = second compound 0.1 µM, first compound 0.316 µM
# [10] = second compound 0.1 µM, first compound 1 µM
# [11] = second compound 0.1 µM, first compound 3.16 µM
# [12] = second compound 0.1 µM, first compound 10 µM
# [13] = second compound 0.316 µM, first compound 0.0316 µM
# [14] = second compound 0.316 µM, first compound 0.1 µM
# [15] = second compound 0.316 µM, first compound 0.316 µM
# [16] = second compound 0.316 µM, first compound 1 µM
# [17] = second compound 0.316 µM, first compound 3.16 µM
# [18] = second compound 0.316 µM, first compound 10 µM
# [19] = second compound 1 µM, first compound 0.0316 µM
# [20] = second compound 1 µM, first compound 0.1 µM
# [21] = second compound 1 µM, first compound 0.316 µM
# [22] = second compound 1 µM, first compound 1 µM
# [23] = second compound 1 µM, first compound 3.16 µM
# [24] = second compound 1 µM, first compound 10 µM
# [25] = second compound 3.16 µM, first compound 0.0316 µM
# [26] = second compound 3.16 µM, first compound 0.1 µM
# [27] = second compound 3.16 µM, first compound 0.316 µM
# [28] = second compound 3.16 µM, first compound 1 µM
# [29] = second compound 3.16 µM, first compound 3.16 µM
# [30] = second compound 3.16 µM, first compound 10 µM
# [31] = second compound 10 µM, first compound 0.0316 µM
# [32] = second compound 10 µM, first compound 0.1 µM
# [33] = second compound 10 µM, first compound 0.316 µM
# [34] = second compound 10 µM, first compound 1 µM
# [35] = second compound 10 µM, first compound 3.16 µM
# [36] = second compound 10 µM, first compound 10 µM
# 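Further: spheroids exposed to compounds for 7 days before viability readout.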
# 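Wherever viability, T/C is given: luminescence signal used as surrogate for viable cell content; 100% = DMSO vehicle control viability.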
smiles,measurement,setting,value
COc1cc(C2c3cc4c(cc3C(OC3OC5COC(C)OC5C(O)C3O)C3COC(=O)C23)OCO4)cc(OC)c1O (stereo unspecified) + Nc1ccc(C#CCN(C(=O)Cc2ncc(C(F)(F)F)cc2C(F)(F)F)c2ccc(F)cc2)nn1,IC50,second compound 0.0316 µM,> 10 µM
same,IC50,second compound 0.1 µM,> 10 µM
same,IC50,second compound 0.316 µM,> 10 µM
same,IC50,second compound 1 µM,> 10 µM
same,IC50,second compound 3.16 µM,> 10 µM
same,IC50,second compound 10 µM,> 10 µM
same,"viability, T/C",[1],107%
same,"viability, T/C",[2],104%
same,"viability, T/C",[3],105%
same,"viability, T/C",[4],95.3%
same,"viability, T/C",[5],82.3%
same,"viability, T/C",[6],68%
same,"viability, T/C",[7],107%
same,"viability, T/C",[8],118%
same,"viability, T/C",[9],97.7%
same,"viability, T/C",[10],88.6%
same,"viability, T/C",[11],83.9%
same,"viability, T/C",[12],58.7%
same,"viability, T/C",[13],103%
same,"viability, T/C",[14],106%
same,"viability, T/C",[15],109%
same,"viability, T/C",[16],98.8%
same,"viability, T/C",[17],87.6%
same,"viability, T/C",[18],62%
same,"viability, T/C",[19],99.5%
same,"viability, T/C",[20],105%
same,"viability, T/C",[21],107%
same,"viability, T/C",[22],95.3%
same,"viability, T/C",[23],87.4%
same,"viability, T/C",[24],72.8%
same,"viability, T/C",[25],112%
same,"viability, T/C",[26],109%
same,"viability, T/C",[27],109%
same,"viability, T/C",[28],93.3%
same,"viability, T/C",[29],76.3%
same,"viability, T/C",[30],58.8%
same,"viability, T/C",[31],103%
same,"viability, T/C",[32],107%
same,"viability, T/C",[33],110%
same,"viability, T/C",[34],97.1%
same,"viability, T/C",[35],78.5%
same,"viability, T/C",[36],67.3%
CNCc1ccc(-c2[nH]c3cc(F)cc4c3c2CCNC4=O)cc1 + Cc1cccc(N(C)C(=O)C2C(O)CCN2c2nc(C)cc(C(F)(F)F)c2C#N)c1,IC50,second compound 0.0316 µM,> 10 µM
same,IC50,second compound 0.1 µM,> 10 µM
same,IC50,second compound 0.316 µM,> 10 µM
same,IC50,second compound 1 µM,> 10 µM
same,IC50,second compound 3.16 µM,> 10 µM
same,IC50,second compound 10 µM,> 10 µM
same,"viability, T/C",[1],93.1%
same,"viability, T/C",[2],111%
same,"viability, T/C",[3],96.6%
same,"viability, T/C",[4],96.4%
same,"viability, T/C",[5],110%
same,"viability, T/C",[6],96.2%
same,"viability, T/C",[7],110%
same,"viability, T/C",[8],94.1%
same,"viability, T/C",[9],89.5%
same,"viability, T/C",[10],91.8%
same,"viability, T/C",[11],108%
same,"viability, T/C",[12],99.9%
same,"viability, T/C",[13],111%
same,"viability, T/C",[14],101%
same,"viability, T/C",[15],99%
same,"viability, T/C",[16],91.3%
same,"viability, T/C",[17],97.5%
same,"viability, T/C",[18],111%
same,"viability, T/C",[19],99.5%
same,"viability, T/C",[20],102%
same,"viability, T/C",[21],99.1%
same,"viability, T/C",[22],109%
same,"viability, T/C",[23],101%
same,"viability, T/C",[24],95.9%
same,"viability, T/C",[25],102%
same,"viability, T/C",[26],91%
same,"viability, T/C",[27],97.6%
same,"viability, T/C",[28],87.9%
same,"viability, T/C",[29],101%
same,"viability, T/C",[30],107%
same,"viability, T/C",[31],88.6%
same,"viability, T/C",[32],90.4%
same,"viability, T/C",[33],106%
same,"viability, T/C",[34],88.8%
same,"viability, T/C",[35],106%
same,"viability, T/C",[36],94.5%
CC[C@@]1(O)C(=O)OCc2c1cc1n(c2=O)Cc2cc3c(CN(C)C)c(O)ccc3nc2-1 + Nc1ccc(C#CCN(C(=O)Cc2ncc(C(F)(F)F)cc2C(F)(F)F)c2ccc(F)cc2)nn1,IC50,second compound 0.0316 µM,> 0.1 µM
same,IC50,second compound 0.1 µM,> 0.1 µM
same,IC50,second compound 0.316 µM,> 0.1 µM
same,IC50,second compound 1 µM,> 0.1 µM
same,IC50,second compound 3.16 µM,> 0.1 µM
same,IC50,second compound 10 µM,> 0.1 µM
same,"viability, T/C","second compound 0.0316 µM, first compound 0.000316 µM",109%
same,"viability, T/C","second compound 0.0316 µM, first compound 0.001 µM",116%
same,"viability, T/C","second compound 0.0316 µM, first compound 0.00316 µM",96.9%
same,"viability, T/C","second compound 0.0316 µM, first compound 0.01 µM",92%
same,"viability, T/C",[1],95.8%
same,"viability, T/C",[2],56.4%
same,"viability, T/C","second compound 0.1 µM, first compound 0.000316 µM",112%
same,"viability, T/C","second compound 0.1 µM, first compound 0.001 µM",107%
same,"viability, T/C","second compound 0.1 µM, first compound 0.00316 µM",107%
same,"viability, T/C","second compound 0.1 µM, first compound 0.01 µM",107%
same,"viability, T/C",[7],99.3%
same,"viability, T/C",[8],52.7%
same,"viability, T/C","second compound 0.316 µM, first compound 0.000316 µM",104%
same,"viability, T/C","second compound 0.316 µM, first compound 0.001 µM",105%
same,"viability, T/C","second compound 0.316 µM, first compound 0.00316 µM",92%
same,"viability, T/C","second compound 0.316 µM, first compound 0.01 µM",111%
same,"viability, T/C",[13],95.5%
same,"viability, T/C",[14],53.4%
same,"viability, T/C","second compound 1 µM, first compound 0.000316 µM",115%
same,"viability, T/C","second compound 1 µM, first compound 0.001 µM",99.2%
same,"viability, T/C","second compound 1 µM, first compound 0.00316 µM",98.6%
same,"viability, T/C","second compound 1 µM, first compound 0.01 µM",91%
same,"viability, T/C",[19],106%
same,"viability, T/C",[20],59.6%
same,"viability, T/C","second compound 3.16 µM, first compound 0.000316 µM",114%
same,"viability, T/C","second compound 3.16 µM, first compound 0.001 µM",112%
same,"viability, T/C","second compound 3.16 µM, first compound 0.00316 µM",112%
same,"viability, T/C","second compound 3.16 µM, first compound 0.01 µM",102%
same,"viability, T/C",[25],93.5%
same,"viability, T/C",[26],63.9%
same,"viability, T/C","second compound 10 µM, first compound 0.000316 µM",109%
same,"viability, T/C","second compound 10 µM, first compound 0.001 µM",111%
same,"viability, T/C","second compound 10 µM, first compound 0.00316 µM",124%
same,"viability, T/C","second compound 10 µM, first compound 0.01 µM",119%
same,"viability, T/C",[31],103%
same,"viability, T/C",[32],63.2%
